Values of other authors in patent US20060177392A1, “Oil-based composition for acne” (priority 2005, published 2006).

Experiments:
[1] = typical dose 0.5 to 2 mg/kg body weight per 24 hours; human fetal abnormalities and spontaneous abortions
[2] = taken internally

CC1=C(/C=C/C(C)=C/C=C/C(C)=C\C(=O)O)C(C)(C)CCC1 [Accutane, 13-cis-retinoic acid]
Teratogenicity [1]: often teratogenic

Vitamin A
Single megadose that can induce brain swelling, headache, drowsiness, vomiting, and/or death ([2]; single megadose): 1,500,000 IU
Sustained dose that may be toxic ([2]; sustained doses): over 50,000 IU
